Patent US12605347B2, “Solid dispersion of ursolic acid and potassium salt” (Indena S.P.A., priority 2019, dated 2026)
Structures can show the parent of a compound that is named as a salt. Where two headings read alike, the source gives them in different places.

Legend:
physchem = details: 25 °C, thermodynamic from solid
Procedure: (§1) Analysis of the solid dispersions and the measure of the solubility in simulated gastrointestinal fluids were performed by HPLC with the instrument and conditions reported below.
(§2) Stirring was stopped and any undissolved solid was let to decant. The supernatant was filtered through a hydrophilic 0.2 μm PTFA filter and analyzed for the content of ursolic acid.
(§3) The same procedure as Test 1 was followed, using 100 mg of ursolic acid instead of the dispersion of example 1.
(§4) The same procedure as Test 1 was followed, using 100 mg ursolic acid potassium salt instead of the dispersion of example 1.

[1] = Dissolution test: solubility in simulated gastrointestinal fluids, ursolic acid in the supernatant by HPLC; details: FaSSGF pH = 1.6; stirred 2 hours at 25° C., supernatant filtered 0.2 μm
Procedure: as §1, §2, §3, §4

[2] = low solubility-low permeability; cited from earlier work

Molecule	solubility thermodynamic at 2 h (physchem; FaSSIF (simulated gastrointestinal fluid), pH 6.5, fassif) [µg/mL]	solubility thermodynamic at 2 h (physchem; FeSSIF (simulated gastrointestinal fluid), pH 5, fessif) [µg/mL]	Ursolic acid in solution [1]	Ursolic acid in solution (pH 1.6)	Ursolic acid in solution (pH 5) [mg/mL]	Ursolic acid in solution (pH 6.5) [mg/mL]	class according to the biopharmaceutical classification system (BCS) [2]
C[C@H]1[C@H](C)CC[C@]2(C(=O)O)CC[C@]3(C)C(=CC[C@@H]4[C@@]5(C)CC[C@H](O)C(C)(C)[C@@H]5CC[C@]43C)[C@H]12 [ursolic acid potassium salt]	154	318	<LOD*	–	–	–	–
3β-hydroxy-urs-12-en-28-oic acid [ursolic acid]	–	–	–	<LOD*	0.083	0.032	class IV
